From US8883745B2, “C—glycolipids with enhanced Th-1 profile” (New York University, priority 2006, dated 2014)

How the values were obtained:
Format in all cases: in vivo
[1] = system: IL-12; assay: IL-12 levels in sera upon i.v. glycolipid administration to BALB/c mice (ELISA); parameters: IL-12 levels, test 1 / IL-12 levels, test 2 / IL-12 levels, average / IL-12 levels, Total: unit not given here
Experimental: (§1) Five- to six-week-old female C57BL/6 mice and BALB/c mice were purchased from Taconic. Each glycolipid was stored at 1 mg/ml in 100% DMSO. Mice were injected intravenously with 1 μg of each glyocolipid diluted in 200 μL sterile phosphate buffered saline (PBS). At indicated time points, sera were collected from each animal, and concentrations of IFN-γ, IL-4, and IL-12 in the sera were evaluated by enzyme-linked immunosorbent assay (ELISA). Serum concentrations of IFN-γ, IL-4, and IL-12 were evaluated using an ELISA kit (eBioscience, San Diego, Calif.). Briefly, 96 well flat-bottom ELISA plates (NUNC) were coated with capture antibody according to the manufacture's recommendation and incubated overnight at 4° C. The plates were washed with PBS+0.05% Tween 20 (PBS-T), then incubated with manufacturer provided blocking solution for 1 hr at room temperature to block non-specific binding sites. After washing with PBS-T, sera diluted 1:10 was added to the wells and incubated for 2 hrs at room temperature. Plates were then incubated at room temperature for 1 hr with biotintylated detection antibody, washed, incubated with avidin conjugated to horse radish peroxidase (HRP) for 30 min at room temperature, washed, and finally incubated with tetramethylbenzidine substrate solution in the dark for 10 minutes at room temperature. The antibodies, avidin-HRP, and substrate solution were all diluted according to the manufacture's recommendation. Reactions were stopped with 2.0N sulfuric acid and the cytokine concentration in each well was determined by comparing the absorbance at 450 nm in each well to known standards. The levels of Th1- and Th2-type cytokines were determined in two different genetic backgrounds, i.e., in C57BL/6 mice and BALB/c mice. The following compounds were administered: A=compound (A-1 trans-conformer), B=compound (A-2), C=compound (A-3), D=compound (A-4), E=compound (A-5), Z=control (PBS alone), CRONY=α-C-GalCer, KRN=α-GalCer, GCK109 (A-1 trans-conformer), GCK151 (A-1 cis-conformer), GCK152 (A-7). The levels of cytokines were measured at 0, 2, 6, 12, 24, 48, and 72 hours after the compound administration. The levels of Th1-type cytokines IFN-γ and IL-12 are summarized in FIGS. 2A-C and 3A-C, respectively. Table 7 provides IFN-γ/IL-4 and IL-12/IL-4 ratios for various compounds, which can be used as indicators of their ability to selectively stimulate Th1-type immune responses.

[2] = system: IFN-γ; assay: IFN-γ levels in sera upon i.v. glycolipid administration to C57BL/6 mice (ELISA); parameters: IFN-γ levels, test 1 / IFN-γ levels, test 2 / IFN-γ levels, average / IFN-γ levels, Total / IFN-γ (B6): unit not given here
Experimental: as §1

[3] = system: IL-4; assay: IL-4 levels in sera upon i.v. glycolipid administration to BALB/c mice (ELISA); parameters: unit not given here
Experimental: as §1

[4] = system: IFN-γ; assay: IFN-γ levels in sera upon i.v. glycolipid administration to BALB/c mice (ELISA); parameters: IFN-γ levels, test 1 / IFN-γ levels, test 2 / IFN-γ levels, average / IFN-γ levels, Total: unit not given here
Experimental: as §1

CCCCCCCCCCCCCCCCCCCCCCCCCCCCC(=O)N[C@@H](/C=C/[C@H]1O[C@H](CO)[C@H](O)[C@H](O)[C@H]1O)[C@H](O)[C@H](O)CCCCCCCCCCCCCC [A-2, (3S,4S,5R)-1-C-(α-D-galactopyranosyl)-3-(N-nonacosanoylamino)-4,5-nonadec-(1,2-E)-enediol]
IL-12/IL-4 (BALB/c) ([1]; ratio calculated from Tables 1-6): 30
IL-12 levels, average ([1]; serum, hour 0): 5
IL-12 levels, test 1 ([1]; serum, hour 0): 5
IL-12 levels, test 2 ([1]; serum, hour 0): 5
IL-12 levels, average ([1]; serum, hour 2): 74
IL-12 levels, test 1 ([1]; serum, hour 2): 141
IL-12 levels, test 2 ([1]; serum, hour 2): 7
IL-12 levels, average ([1]; serum, hour 6): 7251.5
IL-12 levels, test 1 ([1]; serum, hour 6): 7080
IL-12 levels, test 2 ([1]; serum, hour 6): 7423
IL-12 levels, average ([1]; serum, hour 12): 10800
IL-12 levels, test 1 ([1]; serum, hour 12): 11600
IL-12 levels, test 2 ([1]; serum, hour 12): 10000
IL-12 levels, average ([1]; serum, hour 24): 442.5
IL-12 levels, test 1 ([1]; serum, hour 24): 454
IL-12 levels, test 2 ([1]; serum, hour 24): 431
IL-12 levels, average ([1]; serum, hour 48): 66.5
IL-12 levels, test 1 ([1]; serum, hour 48): 0
IL-12 levels, test 2 ([1]; serum, hour 48): 133
IL-12 levels, average ([1]; serum, hour 72): 222.5
IL-12 levels, test 1 ([1]; serum, hour 72): 3
IL-12 levels, test 2 ([1]; serum, hour 72): 442
IL-12 levels, Total ([1]; serum, total over hours 0-72): 18864
IFN-γ/IL-4 (B6) ([2]; C57BL/6, ratio calculated from Tables 1-6): 16
IFN-γ levels, average ([2]; C57BL/6, serum, hour 0): 31
IFN-γ levels, test 1 ([2]; C57BL/6, serum, hour 0): 31
IFN-γ levels, test 2 ([2]; C57BL/6, serum, hour 0): 31
IFN-γ levels, average ([2]; C57BL/6, serum, hour 2): 138.5
IFN-γ levels, test 1 ([2]; C57BL/6, serum, hour 2): 138
IFN-γ levels, test 2 ([2]; C57BL/6, serum, hour 2): 139
IFN-γ levels, average ([2]; C57BL/6, serum, hour 6): 944.5
IFN-γ levels, test 1 ([2]; C57BL/6, serum, hour 6): 955
IFN-γ levels, test 2 ([2]; C57BL/6, serum, hour 6): 934
IFN-γ levels, average ([2]; C57BL/6, serum, hour 12): 2932
IFN-γ levels, test 1 ([2]; C57BL/6, serum, hour 12): 2427
IFN-γ levels, test 2 ([2]; C57BL/6, serum, hour 12): 3437
IFN-γ levels, average ([2]; C57BL/6, serum, hour 24): 8415
IFN-γ levels, test 1 ([2]; C57BL/6, serum, hour 24): 7023
IFN-γ levels, test 2 ([2]; C57BL/6, serum, hour 24): 9807
IFN-γ levels, average ([2]; C57BL/6, serum, hour 48): 464
IFN-γ levels, test 1 ([2]; C57BL/6, serum, hour 48): 424
IFN-γ levels, test 2 ([2]; C57BL/6, serum, hour 48): 504
IFN-γ levels, average ([2]; C57BL/6, serum, hour 72): 100.5
IFN-γ levels, test 1 ([2]; C57BL/6, serum, hour 72): 87
IFN-γ levels, test 2 ([2]; C57BL/6, serum, hour 72): 114
IFN-γ levels, Total ([2]; C57BL/6, serum, total over hours 0-72): 13027
IL-4 level, average ([3]; hour 0): 27
IL-4 level, test 1 ([3]; hour 0): 27
IL-4 level, test 2 ([3]; hour 0): 27
IL-4 level, average ([3]; hour 2): 330
IL-4 level, test 1 ([3]; hour 2): 263
IL-4 level, test 2 ([3]; hour 2): 397
IL-4 level, average ([3]; hour 6): 127
IL-4 level, test 1 ([3]; hour 6): 90
IL-4 level, test 2 ([3]; hour 6): 164
IL-4 level, average ([3]; hour 12): 49.5
IL-4 level, test 1 ([3]; hour 12): 48
IL-4 level, test 2 ([3]; hour 12): 51
IL-4 level, average ([3]; hour 24): 45.5
IL-4 level, test 1 ([3]; hour 24): 43
IL-4 level, test 2 ([3]; hour 24): 48
IL-4 level, average ([3]; hour 48): 40.5
IL-4 level, test 1 ([3]; hour 48): 42
IL-4 level, test 2 ([3]; hour 48): 39
IL-4 level, average ([3]; hour 72): 2
IL-4 level, test 1 ([3]; hour 72): 2
IL-4 level, test 2 ([3]; hour 72): 2
IL-4 level, Total ([3]; total over hours 0-72): 623
IFN-γ/IL-4 (BALB/c) ([4]; BALB/c, ratio calculated from Tables 1-6): 43
IFN-γ levels, average ([4]; BALB/c, serum, hour 0): 27
IFN-γ levels, test 1 ([4]; BALB/c, serum, hour 0): 27
IFN-γ levels, test 2 ([4]; BALB/c, serum, hour 0): 27
IFN-γ levels, average ([4]; BALB/c, serum, hour 2): 234
IFN-γ levels, test 1 ([4]; BALB/c, serum, hour 2): 197
IFN-γ levels, test 2 ([4]; BALB/c, serum, hour 2): 271
IFN-γ levels, average ([4]; BALB/c, serum, hour 6): 4185.5
IFN-γ levels, test 1 ([4]; BALB/c, serum, hour 6): 3723
IFN-γ levels, test 2 ([4]; BALB/c, serum, hour 6): 4648
IFN-γ levels, average ([4]; BALB/c, serum, hour 12): 6418.5
IFN-γ levels, test 1 ([4]; BALB/c, serum, hour 12): 7529
IFN-γ levels, test 2 ([4]; BALB/c, serum, hour 12): 5308
IFN-γ levels, average ([4]; BALB/c, serum, hour 24): 15500
IFN-γ levels, test 1 ([4]; BALB/c, serum, hour 24): 16500
IFN-γ levels, test 2 ([4]; BALB/c, serum, hour 24): 14500
IFN-γ levels, average ([4]; BALB/c, serum, hour 48): 325.5
IFN-γ levels, test 1 ([4]; BALB/c, serum, hour 48): 319
IFN-γ levels, test 2 ([4]; BALB/c, serum, hour 48): 332
IFN-γ levels, average ([4]; BALB/c, serum, hour 72): 62.5
IFN-γ levels, test 1 ([4]; BALB/c, serum, hour 72): 59
IFN-γ levels, test 2 ([4]; BALB/c, serum, hour 72): 66
IFN-γ levels, Total ([4]; BALB/c, serum, total over hours 0-72): 26755
effect: higher/extended IFN-γ and IL-12 with much lower IL-4 compared to α-GalCer (KRN) ([4]; C57BL/6 and BALB/c mice, 1 μg i.v.): particularly pronounced
